Assay results taken from patent US11578056B2, “Solid forms comprising (S)-2-(2,6-dioxopiperidin-3-yl)-4-((2-fluoro-4-((3-morpholinoazetidin-1-yl)methyl)benzyl)amino)isoindoline-1,3-dione and salts thereof, and compositions comprising and methods of using the same” (Celgene Corporation, priority 2019, dated 2023).

Columns and labels:
Assay in all cases: Hematological cell line viability/apoptosis flow cytometry assay
Type in all cases: cell-based
[1] = test system: NU-DHL-1 cell line; conditions: NU-DHL-1 (DLBCL GCB); 120 h
Experimental: (§1) Cell Proliferation and Viability Assay Using Hematological Cell Lines: The following exemplary anti-proliferative assay uses exemplary hematological cell lines in the following. The in vitro growth inhibitory activity of Compound 1 described herein was evaluated using a 384-well flow cytometry assay.
(§2) The cell lines were plated in 384-well flat bottom plates and assessed with increasing concentrations of compound ranging from 0.00015 to 10 μM or dimethyl sulfoxide (DMSO) control. The final concentration of DMSO was 0.1% (v/v). Following the addition of Compound 1 or DMSO and incubation for 120 hours, cell number and cell death were analyzed by flow cytometry (Attune®, Thermo Fisher) using Annexin V and the live-cell impermeant DNA dye, DRAQ7. Phosphatidylserine translocates from the inner layer to the outer layer of the cell membrane early in apoptosis and Annexin V binds to the exposed phosphatidylserine found on the surface of an apoptotic cell. The vital dye DRAQ7 is excluded by intact live cells and only stains cells that have died as a result of apoptosis or necrosis.
(§3) Flow cytometry data analysis was then performed using the Flow Jo_v10 software to determine the number of viable cells (Annexin V and DRAQ7 double negative staining cells) and percentage of apoptotic cells (Annexin V positive cells) for each condition. The live cell count for every concentration was normalized to the DMSO control (considered as 100%) to calculate the percentage of viable cells remaining after treatment and graphed using GraphPad Prism 7.03. The IC50 (50% inhibitory concentration) and Emax (maximum efficacy achieved) values were then calculated by performing nonlinear regression curve fitting using log(inhibitor) vs. normalized response—variable slope analysis on GraphPad Prism 7.03. Area under the curve (AUC) was calculated by performing area under curve analysis on GraphPad Prism 7.03. Similarly, for apoptosis analysis, the percentage of apoptosis combining both “early” (Annexin V positive and DRAQ7 negative) and “late” apoptosis (Annexin V and DRAQ7 positive) cell gates relative to DMSO was graphed using GraphPad Prism 7.03. The AUC, EC50 (concentration of compound that produces half-maximal apoptosis response) and Ymax (maximal percentage of apoptosis achieved) values from apoptosis curves were calculated by performing area under curve analysis and nonlinear regression curve fitting using log(agonist) vs. normalized response—Variable slope analysis on GraphPad Prism 7.03.
(§4) Dose-response proliferation curves for the panel of hematological cell lines and non-linear curve-fit regression were used to determine IC50, AUC, and Emax for % viable cells (Emax for viability varies between 100 at low doses and 0 at high doses, which corresponds to inhibition of all viable cells), and dose-response apoptosis curves were used to determine the EC50, AUC, and Ymax for % apoptosis (Ymax for apoptosis varies from 0 at low doses and 100 at higher doses which corresponds to death of all cells). Tumor cells were exposed to serial dilutions (0.00015 to 10 μM) of Compound 1 or dimethyl sulfoxide (DMSO) control for 5 days. Viability and apoptosis for all cell lines was determined by Annexin V/7-aminoactinomycin D (7-AAD) flow cytometry.

[2] = test system: ULA cell line; conditions: ULA (DLBCL), 120 h
Experimental: as §1, §2, §3, §4

[3] = test system: HNT-34 cell line; conditions: HNT-34 (AML), 120 h
Experimental: as §1, §2, §3, §4

[4] = test system: CARNAVAL cell line; conditions: CARNAVAL (DLBCL), 120 h
Experimental: as §1, §2, §3, §4

[5] = test system: L-363 cell line; conditions: L-363 (MM, PCL), 120 h
Experimental: as §1, §2, §3, §4

[6] = test system: Mec2 cell line; conditions: Mec2 (CLL), 120 h
Experimental: as §1, §2, §3, §4

[7] = test system: U-2973 cell line; conditions: 120 h
Experimental: as §1, §2, §3, §4

[8] = test system: OCI-LY7 cell line; conditions: OCI-LY7 (DLBCL GCB); 120 h
Experimental: as §1, §2, §3, §4

[9] = test system: SVSL cell line; conditions: SVSL (MZL, SMZL), 120 h
Experimental: as §1, §2, §3, §4

[10] = test system: PGA1 cell line; conditions: PGA1 (CLL), 120 h
Experimental: as §1, §2, §3, §4

[11] = test system: NU-DUL-1 cell line; conditions: NU-DUL-1 (DLBCL ABC); 120 h
Experimental: as §1, §2, §3, §4

[12] = test system: KARPAS-422 cell line; conditions: KARPAS-422 (DLBCL GCB); 120 h
Experimental: as §1, §2, §3, §4

[13] = test system: JJN-3 cell line; conditions: JJN-3 (MM, PCL), 120 h
Experimental: as §1, §2, §3, §4

[14] = Homo sapiens, read-out: % Viable Cells IC50

## O=C1CC[C@H](N2C(=O)c3cccc(NCc4ccc(CN5CC(N6CCOCC6)C5)cc4F)c3C2=O)C(=O)N1 [Compound 1, (S)-2-(2,6-dioxopiperidin-3-yl)-4-((2-fluoro-4-((3-morpholinoazetidin-1-yl)methyl)benzyl)amino)isoindoline-1,3-dione]
[1]
  % Viable Cells AUC: 12.37
  % Viable Cells Emax: 0.4919%
  Apoptosis AUC: 981.8
  Apoptosis Ymax: 99.17%
[2]
  % Viable Cells AUC: 0.5518
  % Viable Cells Emax: 0.02523%
  Apoptosis AUC: 995.3
  Apoptosis Ymax: 99.76%
  EC50: 0.00179 µM
[2]; read-out: % Viable Cells IC50
  IC50: 0.00099 µM
[3]
  % Viable Cells AUC: 353
  % Viable Cells Emax: 20.47%
  Apoptosis AUC: 130.1
  Apoptosis Ymax: 44.33%
  EC50: 0.876 µM
[3]; read-out: % Viable Cells IC50
  IC50: 0.026 µM
[4]
  % Viable Cells AUC: 110.6
  % Viable Cells Emax: 7.134%
  Apoptosis AUC: 708.7
  Apoptosis Ymax: 77.84%
  EC50: 0.152 µM
[4]; read-out: % Viable Cells IC50
  IC50: 0.00912 µM
[5]; Homo sapiens
  EC50: 7.95 µM
[5]; [14]
  IC50: 0.001 µM
[5]
  % Viable Cells AUC: 309.1
  % Viable Cells Emax: 27.6%
  Apoptosis AUC: 2.954
  Apoptosis Ymax: 2%
[6]
  % Viable Cells AUC: 312.5
  % Viable Cells Emax: 25.55%
  Apoptosis AUC: 339.8
  Apoptosis Ymax: 35.28%
  EC50: 0.0133 µM
[6]; read-out: % Viable Cells IC50
  IC50: 0.0755 µM
[7]
  % Viable Cells AUC: 853.4
  % Viable Cells Emax: 19.45%
  Apoptosis AUC: 391.9
  Apoptosis Ymax: 60.8%
[8]
  % Viable Cells AUC: 48.18
  % Viable Cells Emax: 4.191%
  Apoptosis AUC: 682.7
  Apoptosis Ymax: 71.18%
[9]
  % Viable Cells AUC: 368.4
  % Viable Cells Emax: 34.07%
  Apoptosis AUC: 340.2
  Apoptosis Ymax: 35.5%
  EC50: 0.00284 µM
[9]; read-out: % Viable Cells IC50
  IC50: 0.0952 µM
[10]
  % Viable Cells AUC: 736.7
  % Viable Cells Emax: 69.21%
  Apoptosis AUC: 48.94
  Apoptosis Ymax: 5.075%
  EC50: 0.122 µM
[10]; read-out: % Viable Cells IC50
  IC50: > 10 µM
[11]
  % Viable Cells AUC: 22.12
  % Viable Cells Emax: 0.0228%
  Apoptosis AUC: 962.8
  Apoptosis Ymax: 99.84%
[12]
  % Viable Cells AUC: 19.97
  % Viable Cells Emax: 0.8721%
  Apoptosis AUC: 911.9
  Apoptosis Ymax: 93.99%
[13]; [14]
  IC50: 0.0004 µM
[13]
  % Viable Cells AUC: 278.2
  % Viable Cells Emax: 21.6%
  Apoptosis AUC: 57.97
  Apoptosis Ymax: 26%
